Test results reported in US20120245344A1 (NIPPON CHEMIPHAR CO., LTD., priority 2009, published 2012).

Biological target: T1, human GPR119 (Homo sapiens, UniProt Q8TDV5)
T1 construct: expressed in transfected cells; host or cells: Flp-in T-Rex-293 cells (Invitrogen #R78007), plasmid pcDNA5/FRT/TO, expression induced with tetracycline
T1 sequence (Q8TDV5 1-335): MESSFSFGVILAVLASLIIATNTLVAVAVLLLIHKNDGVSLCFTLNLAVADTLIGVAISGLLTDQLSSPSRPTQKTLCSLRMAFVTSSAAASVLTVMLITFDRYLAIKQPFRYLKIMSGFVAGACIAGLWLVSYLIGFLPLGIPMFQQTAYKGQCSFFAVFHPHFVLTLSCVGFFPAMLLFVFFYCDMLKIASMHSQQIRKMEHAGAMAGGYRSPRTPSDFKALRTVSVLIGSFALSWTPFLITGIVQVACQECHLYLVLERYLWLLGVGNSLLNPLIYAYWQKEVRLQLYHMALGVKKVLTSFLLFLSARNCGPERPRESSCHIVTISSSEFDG
Assay: Measurement of intracellular cAMP in stable cell line expressing human GPR119 (GPR119 agonist effect)
Assay type: cell-based
Settings: for EC50: increase of intracellular cAMP, Flp-in T-Rex-293 cells expressing human GPR119, 37° C. for 30 minutes; for GPR119 agonist effect (in words): statement in words on Tables 10 to 13
Text: The GPR119 agonist effect is studied by measuring the effect of an analyte on increase of intracellular amount of cAMP in human GPR119 introduced cells. The testing method is described below.
Human GPR119 gene (NM 178471) is purchased from ATCC (ATCC No. 10807349), and is amplyfied according to PCR to form BamHI site at 5′ side and Apa I site at 3′ side. The primers are […] (sequence No. 1) and […] (sequence No. 2). The PCR conditions are described below.
The double-stranded DNA is thermally denatured using a DNA polymerase (KOD-Plus-Ver. 2; TOYOBO #KOD-211) at 98° C. for 10 seconds in one cycle. The denatured single-stranded DNA is annealed with the primers at 55° C. for 30 seconds. The DNA is subjected to an extension reaction at 68° C. for 1 minute and 15 seconds. The above-mentioned steps are repeated in 35 cycles. The PCR product is inserted into pcDNA5/FRT/TO (Invitrogen #V6520-20) plasmid. Flp-in T-Rex-293 cells (Invitorogen #R78007) are transfected with the obtained plasmid. The method of transfection is conducted in accordance with the protocol of the product.
(§1) The stable cell line expressing human GPR119 prepared in the above-mentioned method is plated on a 96-well plate at the concentration of 2,500 cells/well using Dulbecco's Modified Eagle Medium (DMEM) containing 10% fetal bovine serum (FBS). Twenty-four hours after plating, tetracyclin (Invitrogen #Q10019) is added at the final concentration of 20 ng/mL to induce hGPR119 gene expression. Twenty-four hours after, the medium is removed, and the cells are stimulated with an assay buffer (0.5 mM IBMX PBS (−)) containing the test compound at 37° C. for 30 minutes. The amount of the intracellular cAMP is measured using a commercially available kit (HitHunter™ cAMP XS+Assay: GE Healthcare #90007503) and a reader (FLUOstar Optima: BMG LABTECH). The test compound is dissolved in 100% DMSO, and added at the final concentration of 1%.
Human GPR119 gene (NM 178471) was purchased from ATCC (ATCC No. 10807349), and is amplyfied according to PCR to form BamHI site at 5′ side and Apa I site at 3′ side. The primers were […] (sequence No. 1) and […] (sequence No. 2). The PCR conditions are described below. The double-stranded DNA was thermally denatured using a DNA polymerase (KOD-Plus-Ver. 2; TOYOBO #KOD-211) at 98° C. for 10 seconds in one cycle. The denatured single-stranded DNA was annealed with the primers at 55° C. for 30 seconds. The DNA was subjected to an extension reaction at 68° C. for 1 minute and 15 seconds. The above-mentioned steps were repeated in 35 cycles. The PCR product was inserted into pcDNA5/FRT/TO (Invitrogen #V6520-20) plasmid. Flp-in T-Rex-293 cells (Invitorogen #R78007) were transfected with the obtained plasmid. The method of transfection was conducted in accordance with the protocol of the product.
as §1, with “method was” for “method is”, “#Q10019) was” for “#Q10019) is”, “medium was” for “medium is”, “cells were” for “cells are”, “cAMP was” for “cAMP is”, “compound was” for “compound is”
The examination was performed by the method similar to Example 87 Pharmacological experiment 1-(1), -(2).

SMILES | EC50 [nM] | GPR119 agonist effect (in words)
Cc1cc(C2CCN(C(=O)OC(C)(C)C)CC2)cnc1Cn1ccc2cc(-n3cncn3)ccc21 [Example 58, tert-Butyl 4-[3-methyl-2-[5-(1,2,4-triazol-1-yl)indol-1-ylmethyl]pyridin-5-yl]piperidine-1-carboxylate] | 13.1 | –
COC(=O)c1ccc2c(ccn2Cc2ncc(C3CCN(C(=O)OC(C)(C)C)CC3)cc2F)c1 [Example 71, tert-Butyl 4-[3-fluoro-2-[5-(methoxycarbonyl)indol-1-ylmethyl)pyridin-5-yl]piperidine-1-carboxylate] | 191 | –
CC(C)(C)OC(=O)N1CCC(c2ccc(CN3CCc4cc(S(C)(=O)=O)cc(F)c43)nc2)CC1 [Example 25, tert-Butyl 4-[2-(7-fluoro-5-methanesulfonylindolin-1-ylmethyl)pyridin-5-yl]piperidine-1-carboxylate] | 20.2 | –
CC(C)(C)OC(=O)N1CCC(c2cnc(Cn3ccc4cc(S(C)(=O)=O)ccc43)c(F)c2)CC1 [Example 13, tert-Butyl 4-[3-fluoro-2-(5-methanesulfonylindol-1-ylmethyl)pyridin-5-yl]piperidine-1-carboxylate] | 36.3 | –
CC(C)(C)OC(=O)N1CCC(c2ccc(Cn3ccc4c(F)c(S(C)(=O)=O)cc(F)c43)nc2)CC1 [Example 42, tert-Butyl 4-[2-(4,7-difluoro-5-methanesulfonylindol-1-ylmethyl)pyridin-5-yl]piperidine-1-carboxylate] | 22.9 | –
CCc1cnc(N2CCC(c3ccc(Cn4ccc5cc(S(C)(=O)=O)c(F)cc54)nc3)CC2)nc1 [Example 32, 5-Ethyl-2-[4-[2-(6-fluoro-5-methanesulfonylindol-1-ylmethyl)pyridin-5-yl]piperidin-1-yl]pyrimidine] | 52 | –
CC(C)(C)OC(=O)N1CCC(c2ccc(Cn3ccc4cc(S(C)(=O)=O)c(Cl)cc43)nc2)CC1 [Example 31, tert-Butyl 4-[2-(6-chloro-5-methanesulfonylindol-1-ylmethyl)pyridin-5-yl]piperidine-1-carboxylate] | 41.1 | –
Cc1cc(C2CCN(C(=O)OC(C)(C)C)CC2)cnc1Cn1ccc2cc(S(C)(=O)=O)ccc21 [Example 5, tert-Butyl 4-[2-(5-methanesulfonylindol-1-ylmethyl)-3-methylpyridin-5-yl]piperidine-1-carboxylate] | 31.6 | –
CC(C)c1nc(N2CCC(c3ccc(Cn4ccc5cc(S(C)(=O)=O)ccc54)nc3)CC2)no1 [Example 16, 5-Isopropyl-3-[4-[2-(5-methanesulfonylindol-1-ylmethyl)pyridin-5-yl]piperidin-1-yl]-[1,2,4]oxadiazole] | 49.1 | –
CCC1CN(C(=O)OC(C)(C)C)CC=C1c1ccc(Cn2ccc3cc(S(C)(=O)=O)ccc32)nc1 (stereo not shown) [Example 73, tert-Butyl 3-ethyl-4-[2-(5-methanesulfonylindol-1-ylmethyl)pyridin-5-yl]-3,6-dihydro-2H-pyridine-1-carboxylate] | 32.4 | –
CC(C)(C)OC(=O)N1CCC(c2ccc(Cn3ccc4cc(S(C)(=O)=O)ccc43)nc2)C(C)(C)C1 (stereo not shown) [Example 46, tert-Butyl 3,3-dimethyl-4-[2-(5-methanesulfonylindol-1-ylmethyl)pyridin-5-yl]piperidine-1-carboxylate] | 111 | –
CC(C)(C)OC(=O)N1CCCC(c2ccc(Cn3ccc4cc(S(C)(=O)=O)ccc43)nc2)CC1 (stereo not shown) [Example 51] | 115 | –
CC(C)(C)OC(=O)N1CCC(c2ccc(Cn3ccc4c(F)c(S(C)(=O)=O)ccc43)nc2)CC1 [Example 23, tert-Butyl 4-[2-(4-fluoro-5-methanesulfonylindol-1-ylmethyl)pyridin-5-yl]piperidine-1-carboxylate] | 51.3 | –
CCc1cnc(N2CCC(c3ccc(Cn4ccc5cc(S(C)(=O)=O)cc(F)c54)nc3)CC2)nc1 [Example 34, 5-Ethyl-2-[4-[2-(7-fluoro-5-methanesulfonylindol-1-ylmethyl)pyridin-5-yl]piperidin-1-yl]pyrimidine] | 30.4 | –
C[C@H]1C=C(c2ccc(Cn3ccc4cc(S(C)(=O)=O)ccc43)nc2)C[C@H](C)N1C(=O)OC(C)(C)C [Example 68, tert-Butyl (2S,6S)-2,6-dimethyl-4-[2-(5-methanesulfonylindol-1-ylmethyl)pyridin-5-yl]-3,6-dihydro-2H-pyridine-1-carboxylate] | 96.8 | –
Cc1nc(S(C)(=O)=O)cc2ccn(Cc3ccc(C4CCN(C(=O)OC(C)(C)C)CC4)cn3)c12 [Example 28, tert-Butyl 4-[2-(5-methanesulfonyl-7-methyl-1H-pyrrolo[2,3-c]pyridin-1-ylmethyl)pyridin-5-yl]piperidine-1-carboxylate] | 82.1 | –
CC(C)(C)OC(=O)N1CCC(F)(c2ccc(Cn3ccc4cc(S(C)(=O)=O)ccc43)nc2)CC1 [Example 76, tert-Butyl 4-fluoro-4-[2-(5-methanesulfonylindol-1-ylmethyl)pyridin-5-yl]piperidine-1-carboxylate] | 42.6 | –
CC(C)OC(=O)N1CCC(c2cnc(Cn3ccc4cc(-n5cnnn5)cc(F)c43)c(F)c2)CC1 [Example 83, Isopropyl 4-[3-fluoro-2-[7-fluoro-5-(tetrazol-1-yl)indol-1-ylmethyl]pyridin-5-yl]piperidine-1-carboxylate] | 10.4 | excellent GPR119 agonist effect
CC(C)(C)OC(=O)N1CCC(c2ccc(Cn3ccc4cc(-n5cnnn5)ccc43)nc2)CC1 [Example 20, tert-Butyl 4-[2-[5-(tetrazol-1-yl)indol-1-ylmethyl]pyridin-5-yl]piperidine-1-carboxylate] | 18.5 | –
CC(C)(C)OC(=O)N1CCC(c2ccc(Cn3ccc4cc(S(C)(=O)=O)cc([N+](=O)[O-])c43)nc2)CC1 [Example 18, tert-Butyl 4-[2-(5-methanesulfonyl-7-nitroindol-1-ylmethyl)pyridin-5-yl]piperidine-1-carboxylate] | 25.6 | –
CC(C)(C)OC(=O)N1CCC(c2ccc(Cn3ccc4cc(S(C)(=O)=O)cnc43)nc2)CC1 [Example 17, tert-Butyl 4-[2-(5-methanesulfonyl-1H-pyrrolo[2,3-b]pyridin-1-ylmethyl)pyridin-5-yl]piperidine-1-carboxylate] | 30.4 | –
CC1CN(C(=O)OC(C)(C)C)CCC1c1ccc(Cn2ccc3cc(S(C)(=O)=O)ccc32)nc1 (stereo not shown) [Example 44, tert-Butyl 4-[2-(5-methanesulfonylindol-1-ylmethyl)pyridin-5-yl]-3-methylpiperidine-1-carboxylate] | 13.5 | –
CC(C)(C)OC(=O)N1CCC(c2ccc(CN3CCc4cc(-n5cnnn5)cc(F)c43)nc2)CC1 [Example 38, tert-Butyl 4-[2-[7-fluoro-5-(tetrazol-1-yl)indolin-1-ylmethyl]pyridin-5-yl]piperidine-1-carboxylate] | 5.4 | excellent GPR119 agonist effect
